Measured values as given in ChEMBL document CHEMBL3217491, “Design, synthesis and biological evaluation of imidazopyridine/pyrimidine-chalcone derivatives as potential anticancer agents” (2010).
Activity calls are given as the source filed them. No cut-off for these calls is given here.

Legend:
RPMI-8226 = assay: Growth inhibition of human RPMI8226 cells after 48 hrs by SRB assay; format: functional; conditions: RPMI-8226, 48 h
NCI-H23 = assay: Growth inhibition of human NCI-H23 cells after 48 hrs by SRB assay; format: functional; conditions: NCI-H23, 48 h
MCF7 [1] = assay: Induction of apoptosis in human MCF7 cells assessed as decrease in procaspase 9 level at 4 uM by Western blot analysis relative to control; format: functional, cell-based
MDA-MB-435 = assay: Growth inhibition of human MDA-MB-435 cells after 48 hrs by SRB assay; format: functional; conditions: MDA-MB-435, 48 h
SK-OV-3 = assay: Growth inhibition of human SKOV3 cells after 48 hrs by SRB assay; format: functional; conditions: SK-OV-3, 48 h
MCF7 [2] = assay: Growth inhibition of human MCF7 cells after 48 hrs by SRB assay; format: functional; conditions: MCF7, 48 h
MCF7 [3] = assay: Induction of apoptosis in human MCF7 cells assessed as of p21 protein expression at 4 uM by Western blot analysis relative to control; format: functional, cell-based
HL-60(TB) = assay: Growth inhibition of human HL-60(TB) cells after 48 hrs by SRB assay; format: functional; conditions: HL-60, 48 h
MCF7 [4] = assay: Induction of cell cycle arrestin human MCF7 cells assessed as downregulation of cyclin D1 protein expression at 4 uM by Western blot analysis; format: functional, cell-based
CAKI-1 = assay: Growth inhibition of human Caki1 cells after 48 hrs by SRB assay; format: functional; conditions: CAKI-1, 48 h
NCI-H322M = assay: Growth inhibition of human NCI-H322M cells after 48 hrs by SRB assay; format: functional
SR = assay: Growth inhibition of human SR cells after 48 hrs by SRB assay; format: functional
KM12 = assay: Growth inhibition of human KM12 cells after 48 hrs by SRB assay; format: functional; conditions: KM12, 48 h
NCI-H522 = assay: Growth inhibition of human NCI-H522 cells after 48 hrs by SRB assay; format: functional; conditions: NCI-H522, 48 h
COLO 205 = assay: Growth inhibition of human COLO205 cells after 48 hrs by SRB assay; format: functional; conditions: COLO 205, 48 h
HT-29 = assay: Growth inhibition of human HT-29 cells after 48 hrs by SRB assay; format: functional; conditions: HT-29, 48 h
PC-3 = assay: Growth inhibition of human PC3 cells after 48 hrs by SRB assay; format: functional; conditions: PC-3, 48 h
[5] = Growth inhibition of human UO31 cells after 48 hrs by SRB assay; format: functional; conditions: UO-31, 48 h
MCF7 [6] = assay: Induction of apoptosis in human MCF7 cells assessed as increase in TNFR1 protein level at 4 uM by Western blot analysis relative to control; format: functional, cell-based

Q: Which GI50 (RPMI-8226) does the source give for `COc1ccc(C(=O)/C=C/c2c(C(F)(F)F)nc3ccccn23)cc1OC` here?
A: 290 nM

Q: What about the GI50 (NCI-H23) of the same compound?
A: 2370 nM

Q: What about the inhibition (MCF7 [1]) of the same compound?
A: Active

Q: What about the GI50 (MDA-MB-435) of the same compound?
A: 2040 nM

Q: And the GI50 (SK-OV-3)?
A: 2490 nM

Q: What about the GI50 (MCF7 [2]) of the same compound?
A: 560 nM

Q: And the Activity (MCF7 [3])?
A: inactive

Q: What about the GI50 (HL-60(TB)) of the same compound?
A: 1520 nM

Q: What about the inhibition (MCF7 [4]) of the same compound?
A: Active

Q: What about the GI50 (CAKI-1) of the same compound?
A: 2500 nM

Q: What about the GI50 (NCI-H322M) of the same compound?
A: 3.15 µM

Q: What about the GI50 (SR) of the same compound?
A: 440 nM

Q: And the GI50 (KM12)?
A: 570 nM

Q: What about the GI50 (NCI-H522) of the same compound?
A: 5.73 µM

Q: And the GI50 (COLO 205)?
A: 1920 nM

Q: And the GI50 (HT-29)?
A: 1480 nM

Q: And the GI50 (PC-3)?
A: 2730 nM

Q: What about the GI50 [5] of the same compound?
A: 1440 nM

Q: And the Activity (MCF7 [6])?
A: Active
